Reference: ChEMBL document CHEMBL5584294, “Adpressins A-G: Oligophenalenone Dimers from Talaromyces adpressus” (J Nat Prod, 2024)

What was measured:
B-cell line = test: Immunosuppressive activity in BALB/c mouse B-lymphocytes assessed as inhibition of LPS-induced cell proliferation pretreated with LPS for 24 hrs followed by compound addition and measured after 48 hrs by CCK-8 assay; format: functional, cell-based
T-cell [1] = test: Immunosuppressive activity in BALB/c mouse T-lymphocytes assessed as inhibition of ConA-induced cell proliferation pretreated with Concanavalin A for 24 hrs followed by compound addition and measured after 48 hrs by CCK-8 assay; format: functional, cell-based
T-cell [2] = test: Immunosuppressive activity in BALB/c mouse T-lymphocytes assessed as reduction in ConA-induced CD4 subpopulation by measuring CD3negativeCD4negative cells at 5 uM pretreated with Concanavalin A for 24 hrs followed by compound addition and measured after 48 hrs by flow cytometry analysis (reference value: 0%); format: functional; design: scale not given: the % may be the effect or the level left
T-cell [3] = test: Immunosuppressive activity in BALB/c mouse T-lymphocytes assessed as reduction in ConA-induced CD4 subpopulation by measuring CD3positiveCD4negative cells at 5 uM pretreated with Concanavalin A for 24 hrs followed by compound addition and measured after 48 hrs by flow cytometry analysis (reference value: 12.2%); format: functional; design: scale not given: the % may be the effect or the level left
T-cell [4] = test: Immunosuppressive activity in BALB/c mouse T-lymphocytes assessed as reduction in ConA-induced CD4 subpopulation by measuring CD3positiveCD4positive cells at 5 uM pretreated with Concanavalin A for 24 hrs followed by compound addition and measured after 48 hrs by flow cytometry analysis (reference value: 87.8%); format: functional; design: scale not given: the % may be the effect or the level left
T-cell [5] = test: Immunosuppressive activity in BALB/c mouse T-lymphocytes assessed as reduction in ConA-induced CD4 subpopulation by measuring CD3negativeCD4positive cells at 5 uM pretreated with Concanavalin A for 24 hrs followed by compound addition and measured after 48 hrs by flow cytometry analysis (reference value: 0%); format: functional; design: scale not given: the % may be the effect or the level left
T-cell [6] = test: Immunosuppressive activity in BALB/c mouse T-lymphocytes assessed as reduction in ConA-induced CD8 subpopulation by measuring CD3negativeCD8negative cells at 5 uM pretreated with Concanavalin A for 24 hrs followed by compound addition and measured after 48 hrs by flow cytometry analysis (reference value: 0%); format: functional; design: scale not given: the % may be the effect or the level left
T-cell [7] = test: Immunosuppressive activity in BALB/c mouse T-lymphocytes assessed as reduction in ConA-induced CD8 subpopulation by measuring CD3positiveCD8negative cells at 5 uM pretreated with Concanavalin A for 24 hrs followed by compound addition and measured after 48 hrs by flow cytometry analysis (reference value: 70.9%); format: functional; design: scale not given: the % may be the effect or the level left
T-cell [8] = test: Immunosuppressive activity in BALB/c mouse T-lymphocytes assessed as reduction in ConA-induced CD8 subpopulation by measuring CD3positiveCD8positive cells at 5 uM pretreated with Concanavalin A for 24 hrs followed by compound addition and measured after 48 hrs by flow cytometry analysis (reference value: 29.1%); format: functional; design: scale not given: the % may be the effect or the level left
T-cell [9] = test: Immunosuppressive activity in BALB/c mouse T-lymphocytes assessed as reduction in ConA-induced CD8 subpopulation by measuring CD3negativeCD8positive cells at 5 uM pretreated with Concanavalin A for 24 hrs followed by compound addition and measured after 48 hrs by flow cytometry analysis (reference value: 0%); format: functional; design: scale not given: the % may be the effect or the level left
T-cell [10] = test: Immunosuppressive activity in ConA-induced BALB/c mouse T-lymphocytes assessed as Treg cell subsets by measuring CD25negativeFOXP3negative cells at 5 uM pretreated with Concanavalin A for 24 hrs followed by compound addition and measured after 48 hrs by flow cytometry analysis (reference value: 27.2%); format: functional
T-cell [11] = test: Immunosuppressive activity in ConA-induced BALB/c mouse T-lymphocytes assessed as Treg cell subsets by measuring CD25positiveFOXP3negative cells at 5 uM pretreated with Concanavalin A for 24 hrs followed by compound addition and measured after 48 hrs by flow cytometry analysis (reference value: 66.9%); format: functional
T-cell [12] = test: Immunosuppressive activity in ConA-induced BALB/c mouse T-lymphocytes assessed as Treg cell subsets by measuring CD25positiveFOXP3positive cells at 5 uM pretreated with Concanavalin A for 24 hrs followed by compound addition and measured after 48 hrs by flow cytometry analysis (reference value: 5.7%); format: functional
T-cell [13] = test: Immunosuppressive activity in ConA-induced BALB/c mouse T-lymphocytes assessed as Treg cell subsets by measuring CD25negativeFOXP3positive cells at 5 uM pretreated with Concanavalin A for 24 hrs followed by compound addition and measured after 48 hrs by flow cytometry analysis (reference value: 0.2%); format: functional
T-cell [14] = test: Immunosuppressive activity in BALB/c mouse T-lymphocytes assessed as reduction in ConA-induced CD4 subpopulation by measuring CD3negativeCD4negative cells at 2.5 uM pretreated with Concanavalin A for 24 hrs followed by compound addition and measured after 48 hrs by flow cytometry analysis (reference value: 0%); format: functional; design: scale not given: the % may be the effect or the level left
T-cell [15] = test: Immunosuppressive activity in BALB/c mouse T-lymphocytes assessed as reduction in ConA-induced CD4 subpopulation by measuring CD3positiveCD4negative cells at 2.5 uM pretreated with Concanavalin A for 24 hrs followed by compound addition and measured after 48 hrs by flow cytometry analysis (reference value: 12.2%); format: functional; design: scale not given: the % may be the effect or the level left
T-cell [16] = test: Immunosuppressive activity in BALB/c mouse T-lymphocytes assessed as reduction in ConA-induced CD4 subpopulation by measuring CD3positiveCD4positive cells at 2.5 uM pretreated with Concanavalin A for 24 hrs followed by compound addition and measured after 48 hrs by flow cytometry analysis (reference value: 87.8%); format: functional; design: scale not given: the % may be the effect or the level left
T-cell [17] = test: Immunosuppressive activity in BALB/c mouse T-lymphocytes assessed as reduction in ConA-induced CD4 subpopulation by measuring CD3negativeCD4positive cells at 2.5 uM pretreated with Concanavalin A for 24 hrs followed by compound addition and measured after 48 hrs by flow cytometry analysis (reference value: 0%); format: functional; design: scale not given: the % may be the effect or the level left
T-cell [18] = test: Immunosuppressive activity in BALB/c mouse T-lymphocytes assessed as reduction in ConA-induced CD8 subpopulation by measuring CD3negativeCD8negative cells at 2.5 uM pretreated with Concanavalin A for 24 hrs followed by compound addition and measured after 48 hrs by flow cytometry analysis (reference value: 0%); format: functional; design: scale not given: the % may be the effect or the level left
T-cell [19] = test: Immunosuppressive activity in BALB/c mouse T-lymphocytes assessed as reduction in ConA-induced CD8 subpopulation by measuring CD3positiveCD8negative cells at 2.5 uM pretreated with Concanavalin A for 24 hrs followed by compound addition and measured after 48 hrs by flow cytometry analysis (reference value: 70.9%); format: functional; design: scale not given: the % may be the effect or the level left
T-cell [20] = test: Immunosuppressive activity in BALB/c mouse T-lymphocytes assessed as reduction in ConA-induced CD8 subpopulation by measuring CD3positiveCD8positive cells at 2.5 uM pretreated with Concanavalin A for 24 hrs followed by compound addition and measured after 48 hrs by flow cytometry analysis (reference value: 29.1%); format: functional; design: scale not given: the % may be the effect or the level left
T-cell [21] = test: Immunosuppressive activity in BALB/c mouse T-lymphocytes assessed as reduction in ConA-induced CD8 subpopulation by measuring CD3negativeCD8positive cells at 2.5 uM pretreated with Concanavalin A for 24 hrs followed by compound addition and measured after 48 hrs by flow cytometry analysis (reference value: 0%); format: functional; design: scale not given: the % may be the effect or the level left
T-cell [22] = test: Immunosuppressive activity in ConA-induced BALB/c mouse T-lymphocytes assessed as Treg cell subsets by measuring CD25negativeFOXP3negative cells at 2.5 uM pretreated with Concanavalin A for 24 hrs followed by compound addition and measured after 48 hrs by flow cytometry analysis (reference value: 27.2%); format: functional
T-cell [23] = test: Immunosuppressive activity in ConA-induced BALB/c mouse T-lymphocytes assessed as Treg cell subsets by measuring CD25positiveFOXP3negative cells at 2.5 uM pretreated with Concanavalin A for 24 hrs followed by compound addition and measured after 48 hrs by flow cytometry analysis (reference value: 66.9%); format: functional
T-cell [24] = test: Immunosuppressive activity in ConA-induced BALB/c mouse T-lymphocytes assessed as Treg cell subsets by measuring CD25positiveFOXP3positive cells at 2.5 uM pretreated with Concanavalin A for 24 hrs followed by compound addition and measured after 48 hrs by flow cytometry analysis (reference value: 5.7%); format: functional
T-cell [25] = test: Immunosuppressive activity in ConA-induced BALB/c mouse T-lymphocytes assessed as Treg cell subsets by measuring CD25negativeFOXP3positive cells at 2.5 uM pretreated with Concanavalin A for 24 hrs followed by compound addition and measured after 48 hrs by flow cytometry analysis (reference value: 0.2%); format: functional

SMILES: COC(=O)CCCn1cc2c3c(c(C)cc(O)c3c1=O)C1=C(C2=O)[C@]23COC(=O)c4c(O)cc(C)c(c42)C(=O)[C@H]1[C@@H]3OC(C)=O
- IC50 (B-cell line): 1600 nM
- IC50 (T-cell [1]): 2600 nM
- Activity (T-cell [2]): 0%
- Activity (T-cell [3]): 0%
- Activity (T-cell [4]): 22.3%
- Activity (T-cell [5]): 77.7%
- Activity (T-cell [6]): 0%
- Activity (T-cell [7]): 69.9%
- Activity (T-cell [8]): 30.1%
- Activity (T-cell [9]): 0%
- Activity (T-cell [10]): 20.8%
- Activity (T-cell [11]): 75.4%
- Activity (T-cell [12]): 3.3%
- Activity (T-cell [13]): 0.4%
- Activity (T-cell [14]): 0%
- Activity (T-cell [15]): 16.8%
- Activity (T-cell [16]): 83.2%
- Activity (T-cell [17]): 0%
- Activity (T-cell [18]): 0%
- Activity (T-cell [19]): 68.6%
- Activity (T-cell [20]): 31.4%
- Activity (T-cell [21]): 0%
- Activity (T-cell [22]): 18.1%
- Activity (T-cell [23]): 78.3%
- Activity (T-cell [24]): 3.5%
- Activity (T-cell [25]): 0.1%
